From patent US20230096766A1, “AMINO ACID HAVING FUNCTIONAL GROUP CAPABLE OF INTERMOLECULAR HYDROGEN BONDING, PEPTIDE COMPOUND CONTAINING SAME AND METHOD FOR PRODUCTION THEREOF” (Chugai Seiyaku Kabushiki Kaisha, priority 2018, published 2023) come the findings set out here.

For orientation: Papp means the rate of passage across a membrane or cell layer, normalised by area and donor concentration. High values mean fast passage, low ones slow passage.

*1 amine or outer side, *2 acyl side, *3 side chain or, on linkers, in order; H or OH if unused. Where a SMILES comes first, the peptide text is derived from it. Bridges are numbered along the chain shown (N, C = ends). [ ]: non-standard residue; d: D form. The star is where a group is joined. ξ: configuration not given here. NMePhe(3-Cl) = CN[C@@H](Cc1cccc(Cl)c1)C(=O)O; X9 = O=C([C@@H](CN[*:1])COCCO)[*:2]; Propyl(2,2-Me2,3-OH) = CC(C)(CO)C*; NMeF = CN[C@@H](Cc1ccccc1)C(=O)O; NMeGABA = CN(CCCC(=O)[*:2])[*:1]; NMeL = CN[C@@H](CC(C)C)C(=O)O; ξNMeF = CNC(Cc1ccccc1)C(=O)O; Piperidide = C1CCN(*)CC1; NBuGly = CCCCNCC(=O)O; NPrGly = CCCNCC(=O)O; Sar = CNCC(=O)O

This data set can be described thus: in vitro. The note with it: human, Caco-2, Caco-2 (cm/sec).
`CCCCN1CC(=O)N(C)[C@@H](Cc2ccccc2)C(=O)N(C)[C@@H](CC(C)C)C(=O)N[C@@H](COCC(C)(C)CO)C(=O)N(C)[C@@H](CC(C)C)C(=O)N[C@H](C(=O)N2CCCCC2)CC(=O)N(C)CC(=O)N(C)[C@@H](Cc2ccccc2)C(=O)N[C@@H](C(C)C)C(=O)N(C)[C@@H](CC(C)C)C(=O)N[C@@H]([C@@H](C)O)C1=O` [AP124] ([Sar][NMeF]V[NMeL]T[NBuGly][NMeF][NMeL]S(Propyl(2,2-Me2,3-OH))[NMeL]D-Piperidide; lactam N-11): the Papp stood at 1.6 ×10⁻⁶ cm/s.
In the case of `CCCCN1CC(=O)N(C)[C@@H](CC(C)C)C(=O)N[C@@H](COCC(C)(C)CO)C(=O)N(C)[C@@H](Cc2ccccc2)C(=O)N(C)[C@@H](CC(C)C)C(=O)N[C@H](C(=O)N2CCCCC2)CC(=O)N[C@H](C(C)C)C(=O)N(C)C(Cc2ccccc2)C(=O)N[C@@H](CC(C)C)C(=O)N(C)[C@@H](CC(C)C)C(=O)N[C@@H]([C@@H](C)O)C1=O` (stereo partly drawn) [AP126] ([dV][ξNMeF]L[NMeL]T[NBuGly][NMeL]S(Propyl(2,2-Me2,3-OH))[NMeF][NMeL]D-Piperidide; lactam N-11), the Papp is 0.14 ×10⁻⁶ cm/s.
In turn, `CCCN1CC(=O)N(C)[C@@H](CC(C)C)C(=O)N[C@@H](CC(C)C)C(=O)N(C)[C@@H](Cc2ccccc2)C(=O)N(C)[C@@H](CC(C)C)C(=O)N[C@H](C(=O)N2CCCCC2)CC(=O)N[C@H](CC(C)C)C(=O)N(C)[C@@H](Cc2ccccc2)C(=O)NC[C@@H](COCCO)C(=O)N(C)[C@@H](CC(C)C)C(=O)N[C@@H]([C@@H](C)O)C1=O` [AP127] ([dL][NMeF][X9][NMeL]T[NPrGly][NMeL]L[NMeF][NMeL]D-Piperidide; lactam N-11) yielded a Papp of 0.3 ×10⁻⁶ cm/s.
For `CCCCN1CC(=O)N(C)[C@@H](CC(C)C)C(=O)NC[C@@H](COCCO)C(=O)N(C)[C@@H](Cc2ccccc2)C(=O)N(C)[C@@H](CC(C)C)C(=O)N[C@H](C(=O)N2CCCCC2)CC(=O)N[C@H](CC(C)C)C(=O)N(C)[C@@H](CC(C)C)C(=O)N[C@@H](Cc2ccccc2)C(=O)N(C)[C@@H](CC(C)C)C(=O)N[C@@H]([C@@H](C)O)C1=O` [AP128] ([dL][NMeL]F[NMeL]T[NBuGly][NMeL][X9][NMeF][NMeL]D-Piperidide; lactam N-11), the Papp is 0.78 ×10⁻⁶ cm/s.
For `CC(C)C[C@@H]1NC(=O)[C@H](CC(C)C)N(C)C(=O)[C@H](Cc2cccc(Cl)c2)N(C)C(=O)[C@H](COCCO)CNC(=O)[C@H](CC(C)C)N(C)C(=O)CCCN(C)C(=O)C[C@@H](C(=O)N2CCCCC2)NC(=O)[C@H](CC(C)C)N(C)C(=O)[C@H](CC(C)C)N(C)C(=O)[C@H]([C@@H](C)O)NC(=O)[C@H](CC(C)C)N(C)C1=O` [AP129] ([NMeGABA][NMeL][X9][NMePhe(3-Cl)][NMeL]L[NMeL]T[NMeL][NMeL]D-Piperidide; lactam N-11) the value was 0.46 ×10⁻⁶ cm/s; for `CC[C@H](C)[C@@H]1NC(=O)[C@H](CC(C)C)N(C)C(=O)CCCN(C)C(=O)C[C@@H](C(=O)N2CCCCC2)NC(=O)[C@H](CC(C)C)N(C)C(=O)[C@H](CC(C)C)N(C)C(=O)[C@H]([C@@H](C)O)NC(=O)[C@H](CC(C)C)N(C)C(=O)[C@H](COCCO)CNC(=O)[C@H](CC(C)C)N(C)C(=O)[C@H](Cc2cccc(Cl)c2)N(C)C1=O` [AP130] ([NMeGABA][NMeL]I[NMePhe(3-Cl)][NMeL][X9][NMeL]T[NMeL][NMeL]D-Piperidide; lactam N-11), 0.46 ×10⁻⁶ cm/s; for `CCCCN1CC(=O)N(C)[C@@H](CC(C)C)C(=O)N[C@H](C(=O)N2CCCCC2)CC(=O)N(C)[C@@H](CC(C)C)C(=O)NC[C@@H](COCCO)C(=O)N(C)[C@@H](CC(C)C)C(=O)N(C)[C@@H](Cc2ccccc2)C(=O)N[C@@H](CC(C)C)C(=O)N(C)[C@@H](Cc2ccccc2)C(=O)N(C)[C@@H](CC(C)C)C(=O)N[C@@H]([C@@H](C)O)C1=O` [AP131] ([NMeL][X9][NMeL][NMeF]L[NMeF][NMeL]T[NBuGly][NMeL]D-Piperidide; lactam N-11), 1.1 ×10⁻⁶ cm/s.
